Assay: Measurement of oxidation induction time (OIT) by DSC
Conditions: for Time at 180° C. (time to oxidation, oxidation induction time): isothermal 180° C., with liquid polyisoprene LIR-50, O2 atmosphere 50 ml/min, DSC peak
Protocol: The compound of formula III) was investigated under laboratory conditions for its potential protective effect as an aging stabilizer by measurement of the oxidation induction time.
To this end the compounds of formula III) and 6PPD in each case together with a polymer (liquid synthetic polyisoprene (IR), LIR-50, Kuraray, weight average molecular weight distribution Mw=54 000 g/mol, glass transition temperature Tg=−63° C.) were heated at constant temperature (180° C.) until onset of oxidation (start temperature 35° C., heating to 170° C. at a heating rate of 20 K/min (kelvin per minute), heating to 180° C. at a heating rate of 1 K/min; purge gas: nitrogen (N2), volume flow 50 ml/min).
The specimen was kept under isothermal conditions at 180° C. under an N2 atmosphere for 5 minutes and the atmosphere was then switched to an O2 atmosphere (volume flow 50 ml/min).
Oxidation was determined via a peak using DSC (differential scanning calorimetry).
The time in minutes to oxidation was measured.

Compound: CC(C)CC(C)Nc1ccc(Nc2ccccc2)cc1 (stereo not drawn) [Formula 6PPD, N-(1,3-dimethylbutyl)-N′-phenyl-p-phenylenediamine, reference compound]
- Time at 180° C. (time to oxidation, oxidation induction time): 116 ± 10 min

Compound: CC(C)CC(C)Nc1ccc2[nH]c3c(c2c1)CCCC3 (stereo not drawn) [Formula III), 6-(1,3-dimethylbutylamino)-2,3,4,9-tetrahydro-1H-carbazole]
- antioxidant effect compared to 6PPD (at 180° C., taking into account measurement accuracy of ± 10 minutes): comparable antioxidant effect to 6PPD
- Time at 180° C. (time to oxidation, oxidation induction time): 119 ± 10 min
